Converted amounts (≈) assume the structure as drawn. Like-named read-outs stand apart in the source and are kept apart here.
Legend:
S. typhimurium S18 = assay: MIC against veterinary bacteria in vitro (Diagnostic Sensitivity Test Agar); details: Salmonella enterica, 18 h
Protocol: (§2) The activity of the normonyl derivatives of the Examples against various veterinarily important bacteria, was assayed in vitro using two-fold serial dilutions in Diagnostic Sensitivity Test Agar inoculated with 10^4 organisms.

[1] = test system: M. hyopneumoniae ATCC 25095; assay: MIC against Mycoplasma in vitro (Friis broth with agarose); type: cell-based; details: Mesomycoplasma hyopneumoniae, ATCC25095, 144 h
M. gallisepticum S6 = assay: as above; type: cell-based; details: Mycoplasmoides gallisepticum
[2] = test system: Strep. suis (group D) SPS11; assay: MIC against veterinary bacteria in vitro (Diagnostic Sensitivity Test Agar); details: Streptococcus suis, 18 h
Protocol: as §2

Past. multocida PA1 = assay: as above; details: Pasteurella multocida, PA1, 18 h
Protocol: as §2

M. pneumoniae ATCC 15492 = assay: MIC against Mycoplasma in vitro (Friis broth with agarose); type: cell-based; details: Mycoplasmoides pneumoniae, ATCC15492, 144 h
[3] = test system: M. hyosynoviae ATCC 25591; assay: as above; type: cell-based; details: 144 h
[4] = test system: M. hyopneumoniae PW/C/210; assay: as above; type: cell-based; details: Mesomycoplasma hyopneumoniae, 144 h
M. hyopneumoniae UCD 1 = assay: as above; type: cell-based; details: Mesomycoplasma hyopneumoniae, UCD1, 144 h
S. dublin S7 = assay: MIC against veterinary bacteria in vitro (Diagnostic Sensitivity Test Agar); details: Salmonella enterica, S7, 18 h
Protocol: as §2

M. bovis NCTC 10131 = assay: microbe, parasite or virus in culture; type: cell-based; details: NCTC10131, 144 h
Past. multocida PA2 = assay: MIC against veterinary bacteria in vitro (Diagnostic Sensitivity Test Agar); details: Pasteurella multocida, PA2, 18 h
Protocol: as §2

[5] = test system: Staph. aureus 152 (pen. sens); assay: as above; details: Staphylococcus aureus, 18 h
Protocol: as §2

[6] = test system: Erysipelothrix rhusiopathiae NCTC 8163; assay: as above; details: NCTC8163, 18 h
Protocol: as §2

[7] = test system: Neisseria catarrhalis 1502; assay: MIC against human bacteria in vitro (nutrient agar, chocolated horse blood); type: cell-based
Summary of the method: (§1)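 Agar dilution series; medium supplemented with 5% chocolated horse blood; MIC taken from the dilution series.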

Strep. pneumoniae CN33 = assay: as above; type: cell-based; details: Streptococcus pneumoniae
Summary of the method: as §1

[8] = test system: Haemophilus influenzae Q1; assay: as above; type: cell-based
Summary of the method: as §1

M. hyopneumoniae NB12 = assay: MIC against Mycoplasma in vitro (Friis broth with agarose); type: cell-based; details: Mesomycoplasma hyopneumoniae
[9] = test system: Corynebacterium pyogenes CY1; assay: MIC against veterinary bacteria in vitro (Diagnostic Sensitivity Test Agar); details: CY1, 18 h
Protocol: as §2

M. hyorhinis ATCC 23234 = assay: MIC against Mycoplasma in vitro (Friis broth with agarose); type: cell-based; details: Mesomycoplasma hyorhinis, ATCC23234, 144 h
M. hyopneumoniae LABER = assay: as above; type: cell-based; details: Mesomycoplasma hyopneumoniae, 144 h
Strep. agalactiae SPA1 = assay: MIC against veterinary bacteria in vitro (Diagnostic Sensitivity Test Agar); details: Streptococcus agalactiae, SPA1, 18 h
Protocol: as §2

Strep. dysgalactiae SPD1 = assay: as above; details: Streptococcus dysgalactiae, SPD1, 18 h
Protocol: as §2

Bord. bronchiseptica B08 = assay: as above; details: Bordetella bronchiseptica, B08, 18 h
Protocol: as §2

M. hyopneumoniae HK (2) = assay: MIC against Mycoplasma in vitro (Friis broth with agarose); type: cell-based; details: Mesomycoplasma hyopneumoniae, 144 h
B. subtilis ATCC 6633 = assay: MIC against veterinary bacteria in vitro (Diagnostic Sensitivity Test Agar); details: Bacillus subtilis, ATCC6633, 18 h
Protocol: as §2

[10] = M. hyopneumoniae ATCC 25095, 6 days at 37° C, read-out: MIC
[11] = 144 h, M. gallisepticum S6, 6 days at 37° C, read-out: MIC
[12] = M. pneumoniae ATCC 15492, 6 days at 37° C, read-out: MIC
[13] = M. hyosynoviae ATCC 25591, 6 days at 37° C, read-out: MIC
[14] = M. hyopneumoniae PW/C/210, 6 days at 37° C, read-out: MIC
[15] = M. hyopneumoniae UCD 1, 6 days at 37° C, read-out: MIC
[16] = 144 h, M. hyopneumoniae NB12, 6 days at 37° C, read-out: MIC
[17] = M. hyorhinis ATCC 23234, 6 days at 37° C, read-out: MIC
[18] = M. hyopneumoniae LABER, 6 days at 37° C, read-out: MIC

Row | SMILES | MIC (S. typhimurium S18) [µg/mL] | MIC [1, 10] [µg/mL] | MIC (M. gallisepticum S6; [11]) [µg/mL] | MIC [2] [µg/mL] | MIC (Past. multocida PA1) [µg/mL] | MIC (M. pneumoniae ATCC 15492; [12]) [µg/mL] | MIC [3, 13] [µg/mL] | MIC [4, 14] [µg/mL] | MIC (M. hyopneumoniae UCD 1; [15]) [µg/mL] | MIC (S. dublin S7) [µg/mL] | MIC (M. bovis NCTC 10131) [µg/mL] | MIC (Past. multocida PA2) [µg/mL] | MIC [5] [µg/mL] | MIC [6] [µg/mL] | MIC [9] [µg/mL] | MIC (M. hyorhinis ATCC 23234; [17]) [µg/mL] | MIC (M. hyopneumoniae LABER; [18]) [µg/mL] | MIC (Strep. agalactiae SPA1) [µg/mL] | MIC (Strep. dysgalactiae SPD1) [µg/mL] | MIC (Bord. bronchiseptica B08) [µg/mL] | other results
1 | CC(=Cc1nnc(-c2ccccc2)o1)CC1OCC(CC2OC2C(C)C(C)O)C(O)C1O (centres unmarked) [Example 1, 2-(1-Normon-2-yl)-5-phenyl-1,3,4-oxadiazole A] | > 80 | 2.5 (≈ 5.62 µM) | > 10 | 80 (≈ 180 µM) | 10 (≈ 22.5 µM) | > 10 | 1 (≈ 2.25 µM) | 2.5 (≈ 5.62 µM) | 5 (≈ 11.2 µM) | > 80 | 0.05 (≈ 0.112 µM) | 1.25 (≈ 2.81 µM) | 5 (≈ 11.2 µM) | 80 (≈ 180 µM) | > 80 | 2.5 (≈ 5.62 µM) | 2.5 (≈ 5.62 µM) | 40 (≈ 90 µM) | 10 (≈ 22.5 µM) | > 80 | MIC ([7]; human, Neisseria catarrhalis 1502, 18 hours at 37° C, read-out: MIC): 2.5 µg/mL (≈ 5.62 µM); MIC (Strep. pneumoniae CN33; CN33, 18 h): 100 µg/mL (≈ 225 µM); MIC ([8]; human, Haemophilus influenzae Q1, 18 hours at 37° C, read-out: MIC): 2.5 µg/mL (≈ 5.62 µM); MIC (M. hyopneumoniae NB12; [16]): 2.5 µg/mL (≈ 5.62 µM)
2 | CC(=Cc1nnc(-c2cccc([N+](=O)[O-])c2)o1)CC1OCC(CC2OC2C(C)C(C)O)C(O)C1O (centres unmarked) [Example 2, 2-m-Nitrophenyl-5-(1-normon-2-yl)-1,3,4-oxadiazole A] | > 80 | 0.025 (≈ 0.0511 µM) | > 10 | > 80 | 2.5 (≈ 5.11 µM) | 2.5 (≈ 5.11 µM) | 0.5 (≈ 1.02 µM) |  | 0.025 (≈ 0.0511 µM) | > 80 | 0.025 (≈ 0.0511 µM) | 1.25 (≈ 2.55 µM) | 10 (≈ 20.4 µM) | 40 (≈ 81.7 µM) | > 80 | 0.025 (≈ 0.0511 µM) | 0.025 (≈ 0.0511 µM) | 10 (≈ 20.4 µM) | 5 (≈ 10.2 µM) | > 80 | MIC (M. hyopneumoniae HK (2)): 0.05 µg/mL (≈ 0.102 µM); MIC ([7]; Neisseria, 1502, 18 h): 0.5 µg/mL (≈ 1.02 µM); MIC (Strep. pneumoniae CN33; human, Strep. pneumoniae CN33, 18 hours at 37° C, read-out: MIC): 32 µg/mL (≈ 65.4 µM); MIC (M. hyopneumoniae NB12; NB12, 144 h): 0.05 µg/mL (≈ 0.102 µM)
3 | CC(=Cc1nnc(-c2ccc(S(C)(=O)=O)cc2)o1)CC1OCC(CC2OC2C(C)C(C)O)C(O)C1O (centres unmarked) [Example 4, 2-p-Methylsulphonylphenyl-5-(1-normon-2-yl)-1,3,4-oxadiazole A] | > 80 | 0.25 (≈ 0.478 µM) | > 10 | 80 (≈ 153 µM) | 2.5 (≈ 4.78 µM) | > 10 | 1 (≈ 1.91 µM) | 0.1 (≈ 0.191 µM) | 0.25 (≈ 0.478 µM) | > 80 | 0.05 (≈ 0.0957 µM) | 1.25 (≈ 2.39 µM) | 5 (≈ 9.57 µM) | 40 (≈ 76.5 µM) | > 80 | 0.1 (≈ 0.191 µM) | 0.25 (≈ 0.478 µM) | 10 (≈ 19.1 µM) | 10 (≈ 19.1 µM) | > 80 | MIC (B. subtilis ATCC 6633): 5 µg/mL (≈ 9.57 µM); MIC (M. hyopneumoniae HK (2); M. hyopneumoniae HK (2), 6 days at 37° C, read-out: MIC): 0.25 µg/mL (≈ 0.478 µM); MIC (M. hyopneumoniae NB12; [16]): 0.25 µg/mL (≈ 0.478 µM)
4 | CC(=CC(=O)NN)CC1OCC(CC2OC2C(C)C(C)O)C(O)C1O (centres unmarked) [Example 9, Monohydrazide A] | > 80 |  |  | > 80 | 40 (≈ 112 µM) |  |  |  |  | > 80 | 0.5 (≈ 1.39 µM) | 80 (≈ 223 µM) | 80 (≈ 223 µM) | > 80 | > 80 |  |  | > 80 | > 80 | > 80 | MIC [1]: 5 µg/mL (≈ 13.9 µM); MIC (M. gallisepticum S6; S6, 144 h): > 10 µg/mL; MIC (M. pneumoniae ATCC 15492): > 10 µg/mL; MIC (M. hyopneumoniae HK (2)): 10 µg/mL (≈ 27.9 µM); MIC [3]: 10 µg/mL (≈ 27.9 µM); MIC [4]: 5 µg/mL (≈ 13.9 µM); MIC (M. hyopneumoniae UCD 1): 10 µg/mL (≈ 27.9 µM); MIC ([7]; Neisseria, 1502, 18 h): 2.5 µg/mL (≈ 6.97 µM); MIC (Strep. pneumoniae CN33; CN33, 18 h): ≥ 100 µg/mL; MIC ([8]; Haemophilus influenzae, Q1, 18 h): 2.5 µg/mL (≈ 6.97 µM); MIC (M. hyopneumoniae NB12; NB12, 144 h): 10 µg/mL (≈ 27.9 µM); MIC (M. hyorhinis ATCC 23234): > 10 µg/mL; MIC (M. hyopneumoniae LABER): 5 µg/mL (≈ 13.9 µM)

From patent US4861788A, “Antibacterial 1-normon-2-yl-heterocyclic compounds” (Beecham Group plc, priority 1983, dated 1989)
